Test results as given in patent US11161819B2, “Substituted tetrahydroisoquinoline compounds useful as GPR120 agonists” (Merck Sharp & Dohme Corp., priority 2016, dated 2021).

Molecular target: T1, human GPR120 (Homo sapiens, UniProt Q5NUL3)
T1 construct: expressed in transfected cells
T1 sequence (Q5NUL3 1-361): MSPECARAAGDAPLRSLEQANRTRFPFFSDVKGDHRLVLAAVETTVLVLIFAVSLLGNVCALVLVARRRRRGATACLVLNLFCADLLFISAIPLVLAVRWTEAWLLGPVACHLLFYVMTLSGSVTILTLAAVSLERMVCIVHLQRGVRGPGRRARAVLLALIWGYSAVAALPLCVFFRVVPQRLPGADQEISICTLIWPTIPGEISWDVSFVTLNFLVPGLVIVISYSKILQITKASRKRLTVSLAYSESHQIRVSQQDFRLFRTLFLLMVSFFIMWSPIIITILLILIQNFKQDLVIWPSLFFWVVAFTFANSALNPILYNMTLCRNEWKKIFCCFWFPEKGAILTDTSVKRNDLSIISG
Test: Human GPR120 IP1 Assay (inositol phosphate turnover, CisBio IP-One kit)
Format: cell-based
Conditions: IP1 accumulation in CHO-K1 cells stably expressing the short form of human GPR120; 60 min compound incubation; 4-parameter fit; read-out: hGPR120 EC50
How it was run: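 CHO-K1 cells stably expressing short-form human GPR120 were stimulated with compounds for 60 minutes at 37 degrees in stimulation buffer. IP1 accumulation measured by HTRF competitive immunoassay (665/620 nm ratio) against an IP1 standard curve, normalized to a reference compound; EC50 from 4-parameter fit.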

Row | EC50 [nM] | Structure (SMILES)
1 | 15 | Cc1c(CCC(=O)O)ccc2c1CCN(c1cc(OC3CCC3)cc(F)c1C#N)C2 [Example 157, 3-{2-[2-cyano-5-(cyclobutyloxy) 3-fluorophenyl]-5-methyl-1,2,3,4-tetrahydroisoquinolin-6-yl}-propanoic acid]
2 | 59 | O=C(O)[C@H]1C[C@@H]1c1ccc2c(c1)CCN(c1cc(OC3CCC3)cc(Cl)c1F)C2 [Example 91, (1S,2S)-2-{2-[3-chloro-5-(cyclobutyloxy)-2-fluorophenyl]-1,2,3,4-tetrahydroisoquinolin-6-yl} cyclopropane carboxylic acid]
3 | 3000 | CO[C@H]1C[C@H](Oc2cc(F)c(C#N)c(N3CCc4cc([C@@H]5C[C@H]5C(=O)O)ccc4C3)c2)C1 [Example 103, (1R,2R)-2-(2-{2-cyano-3-fluoro-5-[(trans-3-methoxycyclobutyl)oxy]phenyl}-1,2,3,4-tetrahydroiso-quinolin-6-yl)cyclopropane-carboxylic acid]
4 | 16 | N#Cc1c(Cl)cc(OC2CCC2)cc1N1CCc2c(ccc(CCC(=O)O)c2F)C1 [Example 150, 3-{2-[3-chloro-2-cyano-5-(cyclobutyloxy)phenyl]-5-fluoro-1,2,3,4-tetrahydroisoquinolin-6-yl} propanoic acid]
5 | 414 | O=C(O)[C@H]1C[C@@H]1c1ccc2c(c1F)CCN(c1cc(OC3CCC3)cc(Cl)c1F)C2 [Example 125, (1S,2S)-2-{2-[3-chloro-5-(cyclobutyloxy)-2-fluorophenyl]-5-fluoro-1,2,3,4-tetrahydroisoquinolin-6-yl}cyclopropane-carboxylic acid]
6 | 42 | C[C@H]1C[C@H](Oc2cc(F)c(F)c(N3CCc4c(ccc([C@@H]5C[C@H]5C(=O)O)c4F)C3)c2)C1 [Example 112, (1R,2R)-2-(2-{2,3-difluoro-5-[(trans-3-methylcyclobutyl)oxy]phenyl}-5-fluoro-1,2,3,4-tetrahydroisoquinolin-6-yl) cyclopropanecarboxylic acid]
7 | 17 | N#Cc1c(F)cc(OC2CCC2)cc1N1CCc2c(ccc(CCC(=O)O)c2F)C1 [Example 155, 3-{2-[2-cyano-5-(cyclobutyloxy)-3-fluorophenyl]-5-fluoro-1,2,3,4-tetrahydroisoquinolin-6-yl}-propanoic acid]
8 | 24 | N#Cc1cc(OC2CCC2)cc(N2CCc3cc(CCC(=O)O)ccc3C2)c1F [Example 12, 3-{2-[3-cyano-5-(cyclobutyloxy)-2-fluorophenyl]-1,2,3,4-tetra-hydroisoquinolin-6-yl}propanoic acid]
9 | 29 | CO[C@H]1C[C@H](Oc2cc(F)c(F)c(N3CCc4cc(CCC(=O)O)ccc4C3)c2)C1 [Example 20, 3-(2-{2,3-difluoro-5-[(trans-3-methoxycyclobutyl)oxy]phenyl}-1,2,3,4-tetrahydroisoquinolin-6-yl)propanoic acid]

Further lines, the molecule ahead of its results:

Row | Structure (SMILES) | EC50 [nM]
10 | COc1ccc(-n2nc(C)c(C#N)c2N2CCc3cc(CCC(=O)O)ccc3C2)cc1 [Example 43, 3-{2-[4-cyano-1-(4-methoxy-phenyl)-3-methyl-1H-pyrazol-5-yl]-1,2,3,4-tetrahydroisoquinolin-6-yl}propanoic acid] | 1470
11 | Cc1nn(-c2ccc(F)cc2)c(N2CCc3cc(C4CC4C(=O)O)ccc3C2)c1F (stereo not shown) [Example 95, 2-{2-[4-fluoro-1-(4-fluorophenyl)-3-methyl-1H-pyrazol-5-yl]-1,2,3,4-tetrahydroisoquinolin-6-yl} cyclo-propanecarboxylic acid] | 491
12 | COc1ccc(-n2nc(C)c(C#N)c2N2CCc3cc(CCCCC(=O)O)ccc3C2)cc1 [Example 133, 5-{2-[4-cyano-1-(4-methoxyphenyl)-3-methyl-1H-pyrazol-5-yl]-1,2,3,4-tetrahydroisoquinolin-6-yl} pentanoic acid] | 50
13 | N#Cc1ccc(OC(F)(F)F)cc1N1CCc2c(ccc([C@H]3C[C@@H]3C(=O)O)c2F)C1 [Example 117, (1S,2S)-2-{2-[2-cyano-5-(trifluoromethoxy)phenyl]-5-fluoro-1,2,3,4-tetrahydroisoquinolin-6-yl} cyclopropane-carboxylic acid] | 143
14 | COc1cc(F)c(N2CCc3cc(CCC(=O)O)ccc3C2)cc1Oc1ncc(C)s1 [Example 21, 3-(2-{2-fluoro-4-methoxy-5-[(5-methyl-1,3-thiazol-2-yl)oxy]phenyl}-1,2,3,4-tetrahydroiso-quinolin-6-yl)propanoic acid] | 51
15 | C[C@H]1C[C@H](Oc2cc(F)c(F)c(N3CCc4cc([C@H]5C[C@@H]5C(=O)O)ccc4C3)c2)C1 [Example 98, (1S,2S)-2-(2-{2,3-difluoro-5-[(trans-3-methylcyclobutyl)oxy]phenyl}-1,2,3,4-tetrahydroiso-quinolin-6-yl)-cyclopropane-carboxylic acid] | 100
16 | C[C@H]1C[C@H](Oc2cc(F)c(F)c(N3CCc4c(ccc([C@H]5C[C@@H]5C(=O)O)c4F)C3)c2)C1 [Example 122, (1S,2S)-2-(2-{2,3-difluoro-5-[(trans-3-methylcyclobutyl)oxy]phenyl}-5-fluoro-1,2,3,4-tetrahydro-isoquinolin-6-yl)cyclopropane-carboxylic acid] | 121
17 | O=C(O)CCc1ccc2c(c1)CCN(c1nc(OC3CCC3)ccc1F)C2 [Example 5, 3-(2-(6-cyclobutoxy-3-fluoropyridin-2-yl)-1,2,3,4-tetrahydro-isoquinolin-6-yl)-propanoic acid] | 65
18 | N#Cc1cc(OC(F)(F)F)cc(N2CCc3c(ccc([C@H]4C[C@@H]4C(=O)O)c3F)C2)c1F [Example 107, (1S,2S)-2-(2-(3-cyano-2-fluoro-5-(trifluoromethoxy)phenyl)-5-fluoro-1,2,3,4-tetrahydroisoquinolin-6-yl)cyclopropanecarboxylic acid] | 122
19 | O=C(O)CCc1ccc2c(c1)CCN(c1cc(Cl)c(C(F)(F)F)c(Cl)c1)C2 [Example 40, 3-{2-[3,5-dichloro-4-(trifluoro-methyl)phenyl]-1,2,3,4-tetrahydro-isoquinolin-6-yl}propanoic acid] | 463
20 | O=C(O)CCc1ccc2c(c1)CCN(c1cc(Oc3cnccn3)ccc1F)C2 [Example 33, 3-{2-[2-fluoro-5-(pyrazin-2-yloxy)phenyl]-1,2,3,4-tetrahydroiso-quinolin-6-yl}propanoic acid] | 192
21 | Cc1ccc(-n2nc(C)c(C#N)c2N2CCc3cc(OCCCCO)ccc3C2)cc1 [Example 139, 5-[6-(4-hydroxybutoxy)-3,4-dihydro-isoquinolin-2(1H)-yl]-3-methyl-1-(4-methylphenyl)-1H-pyrazole-4-carbonitrile] | 187
22 | O=C(O)CCc1ccc2c(c1)CCN(c1cc(OC(F)(F)F)cc(Cl)c1F)C2 [Example 15, 3-{2-[3-chloro-2-fluoro-5-(trifluoromethoxy)phenyl]-1,2,3,4-tetrahydroisoquinolin-6-yl}-propanoic acid] | 22
23 | O=C(O)[C@@H]1C[C@H]1c1ccc2c(c1F)CCN(c1cc(OC(F)(F)F)ccc1F)C2 [Example 113] | 59
24 | C[C@H]1C[C@H](Oc2cc(F)c(F)c(N3CCc4cc([C@@H]5C[C@H]5C(=O)O)ccc4C3)c2)C1 [Example 101, (1R,2R)-2-(2-{2,3-difluoro-5-[(trans-3-methylcyclobutyl)oxy]phenyl}-1,2,3,4-tetrahydroiso-quinolin-6-yl)-cyclopropane-carboxylic acid] | 273
25 | Cc1ccc(-n2nc(C)c(C#N)c2N2CCc3cc(O)ccc3C2)cc1 [Example 129, 5-(6-hydroxy-3,4-dihydroisoquinolin-2(1H)-yl)-3-methyl-1-(p-tolyl)-1H-pyrazole-4-carbonitrile] | 92
